In PubChem BioAssay AID2202556 (NIEHS Division of Translational Toxicology (DTT)):
Records with an inconclusive call do not appear. Activity calls are given as the source filed them. The rule behind the calls is not given here.

System: in vivo alkaline comet assay, DNA damage, mouse/rat
Experiment: In vivo alkaline comet assay, summary data
Description: The comet assay examines the ability of substances to cause DNA damage in cells from a variety of different tissues, such as liver, stomach, lung, or brain.
There are multiple forms of DNA damage, including DNA adducts (addition of a chemical structure to a DNA base), oxidative damage to DNA, and breaks in one or both strands. The comet assay can detect single and double strand breaks, DNA adducts, and DNA crosslinks, as well as breaks along the DNA strand that are produced during the normal processes of DNA repair or replication. Thus, the comet assay provides a snapshot of the balance between DNA damage and DNA repair at the time the tissue was harvested.
The DNA damage detected by the comet assay can resolve in several ways. The damage is most often rapidly and correctly repaired. Alternately, a cell that sustains DNA damage may die without passing the damage on to daughter cells following cell division. However, if the damage is not repaired or is repaired incorrectly, the daughter cells may inherit the damage as mutations or chromosome breaks, which are found in many human diseases including cancer. The outcome of the detected DNA damage is unknown.
The comet assay provides the advantage of being able to look at chemical effects on DNA in tissues other than bone marrow, which is the main source of cells used to examine chemical-induced chromosome damage and mutation induction in animals (see Micronucleus Assay).
Animals (rats or mice) are treated with a test substance once or multiple times, and DNA damage is usually evaluated 3-6 hours after the final treatment.
The animal tissue is rapidly minced in a buffer solution, combined with agarose, and layered onto slides. The slides are placed in a solution that removes the cellular and nuclear membranes and cellular proteins, leaving behind the nuclear DNA. The slides are then incubated in an alkaline solution (pH > 13) to convert alkali-labile sites into strand breaks and allow the DNA to unwind. Next, the slides are subjected to an electrical field in a tank filled with a buffer solution. Broken DNA, having a negative charge, migrates out of the area of the nucleus toward the positively charged anode. This forms a comet-like shape with the nucleus at the "head" and the migrated DNA as the "tail." All steps of the method are performed using ice-cold solutions and buffers. After this process, the DNA is stained with a fluorescent dye and cells are analyzed using Comet Assay IV Imaging Software.
For each cell, DNA migration is analyzed using an automated software system attached to a microscope. The extent of damage is characterized as the percent tail DNA (how much DNA migrated to the tail, compared to the total DNA as a percentage). At least 100 cells per sample are evaluated; current guidelines for the assay recommend analysis of at least 150 cells per sample. The data is statistically analyzed to determine if there is a significant increase in percent tail DNA in chemical-exposed animals compared to the controls (animals not exposed).
Dose-related responses, as well as significant dose groups, are considered during the evaluation of the data. For a positive test, both a dose response and at least one significant dose group are required. If only one of these measures is present, the test is considered to be equivocal. The absence of either condition results in a negative test. The final conclusions for comet assays are determined by considering the results of statistical analyses, reproducibility of any observed effects, and the magnitude of the effects. Ultimately, both biological and statistical significance are considered when reaching a final conclusion.
For more details, please refer to the original protocol: https://ntp.niehs.nih.gov/research/apptoxres/genetic and publication: https://www.ncbi.nlm.nih.gov/pubmed/26212309

[O]=[Sb][O][Sb]=[O]
outcome: active; positive

NC(=O)CC(N)=O
outcome: active; positive

Cc1ccc(N(C)C)cc1
outcome: active; negative

C=CC(N)=O
outcome: active; positive

ClCC1CO1 (centres undefined)
outcome: active; positive

c1ccoc1
outcome: active; positive

CC(C)c1ccccc1
outcome: active; positive

CCOS(C)(=O)=O
outcome: active

C=CC(=O)NC(C)(C)C
outcome: active; positive

CNC(=O)Oc1cccc2ccccc12
outcome: active

CC[C@]1(O)C[C@H]2CN(CCc3c([nH]c4ccccc34)[C@@](C(=O)OC)(c3cc4c(cc3OC)N(C=O)[C@H]3[C@@](O)(C(=O)OC)[C@H](OC(C)=O)[C@]5(CC)C=CCN6CC[C@]43[C@@H]65)C2)C1
outcome: active

O=C([O-])[O-].O=C([O-])[O-].[OH-].[OH-].[OH-].[OH-].[OH-].[OH-].[Zn+2].[Zn+2].[Zn+2].[Zn+2].[Zn+2]
outcome: active

CNNC
outcome: active

NC(=O)NO
outcome: active; positive

Nc1nc(=O)n([C@@H]2CS[C@H](CO)O2)cc1F
outcome: active; positive

CC(=O)CC(C)=O
outcome: active; positive

CCNC(=O)CC(C)=O
outcome: active; positive

C=CC1(C)OC(=O)N(c2cc(Cl)cc(Cl)c2)C1=O (centres undefined)
outcome: active; positive

OC(CCl)CCl
outcome: active; positive
